Columns and labels:
[1] = Solubilization of MFS-agent in water; assay type: physicochemical; conditions: 0.1 mM in water, no DMSO or other solvents
Method: (§1) To examine the multi-functionality of the complete MFS-agent 2 (FIG. 2B), compound 2 was solubilized in water (0.1 mM) and imaged via three distinct imaging modalities (FIG. 4A-C). […] This is a highly desirable trait, for a molecule that will be delivered through the blood stream. […] Red fluorescence emission was determined by using spectral analysis of a confocal microscope (FIG. 4B).

[2] = Phantom T1 MRI measurement (1 T scanner); conditions: 0.1 mM dissolved in water vs control (0 mM), 1 T MRI scanner
Method: (§2) FIGS. 4A-C present the characterization of the MFS-agent 2 using different imaging modalities; (4A) Phantom T1 MRI-measurement (Bruker, ASPECT 1 T MRI scanner, USA) of control (0 mM) and MFS-agent (0.1 mM dissolved in water), (4B) Emission spectra of the MFS measured by confocal microscope (LSM-880, Zeiss, Germany) with 561 nm laser excitation (peak emission (nm): 617), (4C) and Phantom measurement in X-ray micro-Computed Tomography scanner (Bruker, Skyscan micro-CT, USA) of control (0 mM) and MFS-agent (0.1 mM dissolved in water).
as §1

[3] = Emission spectrum by confocal microscope; assay type: physicochemical; conditions: 561 nm laser excitation
Method: as §2, §1

[4] = Phantom measurement in X-ray micro-CT scanner; conditions: 0.1 mM dissolved in water vs control (0 mM)
Method: as §2, §1

Nc1nc(OCc2ccc(CNC(=O)NCCOCCN(CCOCCn3cc(CNC(=O)CN4CCN(CC(=O)O)CCN(CC(=O)O)CCN(CC(=O)O)CC4)nn3)S(=O)(=O)c3ccc(C4=c5cc6c7c(c5Oc5c4cc4c8c5CCCN8CCC4)CCC[N+]=7CCC6)c(S(=O)(=O)O)c3)cc2)c2nc[nH]c2n1 [compound 2]
solubility in water [1]: dissolved easily in water | T1 MRI contrast [2]: very bright contrast | peak emission [3]: 617 nm | CT signal (X-ray attenuation) [4]: very strong CT signal

Source: patent US20200405885A1, “MAGNETIC RESONANCE IMAGING (MRI) CONTRAST AGENTS AND USE THEREOF” (TECHNION RESEARCH & DEVELOPMENT FOUNDATION LTD., priority 2017, published 2020)
